Data reported in PMC6356581, “Fragment-Based Structural Optimization of a Natural Product Itampolin A as a p38α Inhibitor for Lung Cancer” (Marine Drugs, 2019).

Target: MAPK14/p38α (Homo sapiens, UniProt Q16539)
Test: p38α MAP kinase activity based on the rate of phosphorylation of ATF-2 (TR-FRET)
Format: biochemical
Details: 90 μM ATP, 0.4 μM GFP-ATF2 (19–96), 1 ng/mL MAPK14/p38α, 1 h RT; read-out: p38α MAP kinase inhibitory activity IC50
Method: 4.3. The p38α MAP Kinase Activity Based on the Rate of Phosphorylation of ATF-2
Kinase reaction buffer composition: 50 mM HEPES (pH 7.5), 10 mM MgCl2, 0.01% BRIJ-35 and 1 mM EGTA. Titration MAPK14/p38α at 90 μM ATP: Prepare MAPK14/p38α in kinase buffer at a concentration of 500 ng/mL. Perform two-fold serial dilution using kinase buffer from 500 ng/mL, 16 dose points. Add 5 μL of the serially diluted MAPK14/p38α into the 384-well plate in triplicate. Prepare 1 mL of 0.8 μM substrate GFP-ATF2 (19–96) and 180 μMATP in kinase reaction buffer. The reaction was carried out by adding 5 μL of the substrate GFP-ATF2 (19–96) and ATP solution into each well of the assay plate. Seal the assay plate and incubate for 1 h at room temperature (RT).
An amount of 4 μL MAPK14/p38α was added to each well of the 384-well assay plate. Incubate for 15 min at RT. Finally, 4 μL substrate GFP-ATF2 (19–96) and ATP in kinase reaction buffer were added to start the reaction. The final concentrations of MAPK14/p38α, Substrate, and ATP were 1 ng/mL, 0.4 μM, and 90 μM, respectively. Incubate for 1 h at RT. Add 10 μL/well of antibody solution. The final concentrations of EDTA and antibody were 10 mM and 2 nM respectively. Incubate for 30 min at RT.

Sequence of MAPK14/p38α (Q16539 whole entry): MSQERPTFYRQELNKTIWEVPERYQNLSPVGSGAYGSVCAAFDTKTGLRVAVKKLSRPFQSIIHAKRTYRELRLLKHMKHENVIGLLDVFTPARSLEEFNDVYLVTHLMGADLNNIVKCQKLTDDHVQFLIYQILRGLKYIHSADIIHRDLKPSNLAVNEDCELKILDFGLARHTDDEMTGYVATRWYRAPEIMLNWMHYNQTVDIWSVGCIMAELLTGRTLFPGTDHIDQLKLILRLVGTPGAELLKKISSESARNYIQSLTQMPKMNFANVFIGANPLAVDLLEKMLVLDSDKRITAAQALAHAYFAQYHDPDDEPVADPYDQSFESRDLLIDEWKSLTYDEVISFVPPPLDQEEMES

Q: Which IC50 does the source give for COc1c(Br)cc(C[C@@H](NC(=O)Nc2ccccc2F)C(=O)NCCc2cc(Br)c(O)c(Br)c2)cc1Br [Compound 5m] here?
A: The IC50 was 71.4 ± 19.6 nM.

Q: Which IC50 does the source give for COc1c(Br)cc(CCNC(=O)Nc2ccc(Br)cc2)cc1Br [Compound 6k] here?
A: Its IC50 is 169 ± 2.6 nM.

Q: Which IC50 does the source give for COc1c(Br)cc(C[C@@H](NC(=O)Cc2ccc(OCCCN3CCOCC3)cc2)C(=O)NCCc2cc(Br)c(O)c(Br)c2)cc1Br [Compound 4o] here?
A: The IC50 was 138 ± 13.6 nM.

Q: With COc1c(Br)cc(CCNC(=O)Nc2ccccc2F)cc1Br [Compound 6m] as the molecule, how does the IC50 read?
A: Its IC50 is 13.6 ± 3 nM.

Q: With COc1c(Br)cc(C[C@@H](NC(=O)Nc2ccc(Br)cc2)C(=O)NCCc2cc(Br)c(O)c(Br)c2)cc1Br [Compound 5k] as the molecule, how does the IC50 read?
A: Its IC50 is 90.3 ± 2.7 nM.

Q: With CCCOc1ccc(NC(=O)NCCc2cc(Br)c(OC)c(Br)c2)cc1 [Compound 6c] as the molecule, how does the IC50 read?
A: Its IC50 is 701 ± 7.4 nM.

Q: For COc1c(Br)cc(C[C@@H](NC(=O)Nc2ccc(F)cc2)C(=O)NCCc2cc(Br)c(O)c(Br)c2)cc1Br [Compound 5l], which IC50 is on record?
A: Its IC50 is 110 ± 18.8 nM.

Q: Which IC50 does the source give for COc1c(Br)cc(CCNC(=O)Nc2ccc(OCCCN3CCOCC3)cc2)cc1Br [Compound 6o] here?
A: The IC50 was 7.9 ± 1.7 nM.

Q: For COc1c(Br)cc(C[C@@H](NC(=O)Nc2ccccc2Cl)C(=O)NCCc2cc(Br)c(O)c(Br)c2)cc1Br [Compound 5j], which IC50 is on record?
A: Its IC50 is 448 ± 64.1 nM.

Q: Which IC50 does the source give for CCOc1ccc(CC(=O)N[C@H](Cc2cc(Br)c(OC)c(Br)c2)C(=O)NCCc2cc(Br)c(O)c(Br)c2)cc1 [Compound 4b] here?
A: Its IC50 is 492 ± 46.2 nM.

Q: With CCCCOc1ccc(NC(=O)N[C@H](Cc2cc(Br)c(OC)c(Br)c2)C(=O)NCCc2cc(Br)c(O)c(Br)c2)cc1 [Compound 5d] as the molecule, how does the IC50 read?
A: The IC50 was 691 ± 38.4 nM.

Q: Which IC50 does the source give for COc1c(Br)cc(CCNC(=O)Nc2ccc(OC(C)C)cc2)cc1Br [Compound 6h] here?
A: The IC50 was 329 ± 44.2 nM.

Q: Which IC50 does the source give for COc1c(Br)cc(CCNC(=O)Nc2ccc(C)cc2)cc1Br [Compound 6n] here?
A: Its IC50 is 300 ± 11.7 nM.

Q: With CCCCOc1ccc(CC(=O)N[C@H](Cc2cc(Br)c(OC)c(Br)c2)C(=O)NCCc2cc(Br)c(O)c(Br)c2)cc1 [Compound 4d] as the molecule, how does the IC50 read?
A: The IC50 was 806 ± 139 nM.

Q: For COc1c(Br)cc(CCNC(=O)Nc2ccccc2Cl)cc1Br [Compound 6j], which IC50 is on record?
A: The IC50 was 71.2 ± 4.5 nM.

Q: For COc1c(Br)cc(C[C@@H](NC(=O)Nc2cccc(Cl)c2)C(=O)NCCc2cc(Br)c(O)c(Br)c2)cc1Br [Compound 5i], which IC50 is on record?
A: The IC50 was 51.3 ± 4.5 nM.

Q: With COc1ccc(NC(=O)N[C@H](Cc2cc(Br)c(OC)c(Br)c2)C(=O)NCCc2cc(Br)c(O)c(Br)c2)cc1 [Compound 5a] as the molecule, how does the IC50 read?
A: The IC50 was 112 ± 12 nM.

Q: For COc1c(Br)cc(C[C@@H](NC(=O)Cc2ccccc2F)C(=O)NCCc2cc(Br)c(O)c(Br)c2)cc1Br [Compound 4m], which IC50 is on record?
A: Its IC50 is 78.6 ± 59.2 nM.

Q: Which IC50 does the source give for COc1ccc(NC(=O)NCCc2cc(Br)c(OC)c(Br)c2)cc1 [Compound 6a] here?
A: Its IC50 is 263 ± 3.3 nM.

Q: Which IC50 does the source give for COc1c(Br)cc(C[C@@H](NC(=O)Cc2ccc(F)cc2)C(=O)NCCc2cc(Br)c(O)c(Br)c2)cc1Br [Compound 4l] here?
A: Its IC50 is 618 ± 87.7 nM.

Q: For COc1c(Br)cc(C[C@@H](NC(=O)Cc2ccc(Br)cc2)C(=O)NCCc2cc(Br)c(O)c(Br)c2)cc1Br [Compound 4k], which IC50 is on record?
A: Its IC50 is 832 ± 12.1 nM.

Q: Which IC50 does the source give for COc1c(Br)cc(C[C@@H](NC(=O)Nc2ccc(C)cc2)C(=O)NCCc2cc(Br)c(O)c(Br)c2)cc1Br [Compound 5n] here?
A: Its IC50 is 279 ± 28.9 nM.

Q: For CCOc1ccc(NC(=O)N[C@H](Cc2cc(Br)c(OC)c(Br)c2)C(=O)NCCc2cc(Br)c(O)c(Br)c2)cc1 [Compound 5b], which IC50 is on record?
A: Its IC50 is 346 ± 18.4 nM.

Q: Which IC50 does the source give for COc1c(Br)cc(CCNC(=O)Nc2ccc(F)cc2)cc1Br [Compound 6l] here?
A: Its IC50 is 21.5 ± 4.6 nM.

Q: Which IC50 does the source give for CCC(C)Oc1ccc(NC(=O)NCCc2cc(Br)c(OC)c(Br)c2)cc1 (stereo not shown) [Compound 6e] here?
A: Its IC50 is 920.3 ± 6.1 nM.

Q: With COc1c(Br)cc(CCNC(=O)Nc2cccc(Cl)c2)cc1Br [Compound 6i] as the molecule, how does the IC50 read?
A: The IC50 was 17.5 ± 2.4 nM.

Q: Which IC50 does the source give for CCOc1ccc(NC(=O)NCCc2cc(Br)c(OC)c(Br)c2)cc1 [Compound 6b] here?
A: The IC50 was 221 ± 4.2 nM.

Q: For COCCOc1ccc(NC(=O)NCCc2cc(Br)c(OC)c(Br)c2)cc1 [Compound 6g], which IC50 is on record?
A: Its IC50 is 11.7 ± 3 nM.

Q: Which IC50 does the source give for CCCOc1ccc(NC(=O)N[C@H](Cc2cc(Br)c(OC)c(Br)c2)C(=O)NCCc2cc(Br)c(O)c(Br)c2)cc1 [Compound 5c] here?
A: The IC50 was 167 ± 23.9 nM.

Q: Which IC50 does the source give for COc1c(Br)cc(C[C@@H](NC(=O)Cc2cccc(Cl)c2)C(=O)NCCc2cc(Br)c(O)c(Br)c2)cc1Br [Compound 4i] here?
A: Its IC50 is 91 ± 11.1 nM.

Q: For COc1c(Br)cc(CC(NC(=O)Nc2ccc(OCCCN3CCOCC3)cc2)C(=O)NCCc2cc(Br)c(O)c(Br)c2)cc1Br (stereo not shown) [Compound 5o], which IC50 is on record?
A: Its IC50 is 134 ± 26.3 nM.

Tested on: non-small cell lung cancer
Test: not given
Parameters: method as in doi:10.2174/1570179414666170215092631
Details: previous study; cited from earlier work

Q: With COc1c(Br)cc(C[C@@H](NC(=O)Cc2ccc(OCCCNC(C)=O)cc2)C(=O)NCCc2cc(Br)c(O)c(Br)c2)cc1Br [Itampolin A] as the molecule, how does the “antitumor activity against non-small cell lung cancer” value read?
A: Its value is “potent concentration-dependent antitumor activity”.

Tested on: A549 cells
Test: MTT cell proliferation inhibition assay
Format: cell-based
Details: Homo sapiens; A549, 48 h incubation
Method: 4.4. MTT Assay The A549 cell lines were cultured using DMEM and RPMI, respectively, in standard humidified incubation conditions at 37 °C in 5% CO2. Then, the cancer cells (1000/well) were placed on 96-well plates in triplicate. After 24 h incubation, cells were treated with a series of concentrations of the brominated tyrosine derivatives (1, 10, 20, 80 μmol/L). The positive control contained the same concentrations of BIRB-796, and the negative control received the same volume of DMSO. After 48h incubation, cells were stained with 5% MTT, and the optical density was recorded at an absorbance wavelength of 570 nm.

Q: With COc1c(Br)cc(CCNC(=O)Nc2ccc(OCCCN3CCOCC3)cc2)cc1Br [Compound 6o] as the molecule, how does the IC50 read?
A: The IC50 was 660 nM.

Tested on: non-small cell lung A549 cells
Test: not given
Parameters: method as in doi:10.2174/1570179414666170215092631
Details: previous study; cited from earlier work

Q: With COc1c(Br)cc(C[C@@H](NC(=O)Cc2ccc(OCCCNC(C)=O)cc2)C(=O)NCCc2cc(Br)c(O)c(Br)c2)cc1Br [(−)-itampolin A] as the molecule, how does the “inhibitory activity against non-small cell lung A549 cells” value read?
A: Its value is “significant inhibitory activity”.
